In US9796714B2, “Calcium channel agonists” (University of Pittsburgh—Of the Commonwealth System of …, priority 2013, dated 2017):
Like-named read-outs stand apart in the source and are kept apart here.

What was measured:
[1] = biological target: T1, N-type Ca^2+ channel (Cav2.2) (Rattus norvegicus, UniProt Q02294); assay: N-type Ca2+ channel agonist activity, whole-cell perforated patch clamp of tail currents in tsA201 cells; assay type: cell-based
T1 construct: expressed in transfected cells; later also transient transfection
T1 sequence (Q02294 whole entry): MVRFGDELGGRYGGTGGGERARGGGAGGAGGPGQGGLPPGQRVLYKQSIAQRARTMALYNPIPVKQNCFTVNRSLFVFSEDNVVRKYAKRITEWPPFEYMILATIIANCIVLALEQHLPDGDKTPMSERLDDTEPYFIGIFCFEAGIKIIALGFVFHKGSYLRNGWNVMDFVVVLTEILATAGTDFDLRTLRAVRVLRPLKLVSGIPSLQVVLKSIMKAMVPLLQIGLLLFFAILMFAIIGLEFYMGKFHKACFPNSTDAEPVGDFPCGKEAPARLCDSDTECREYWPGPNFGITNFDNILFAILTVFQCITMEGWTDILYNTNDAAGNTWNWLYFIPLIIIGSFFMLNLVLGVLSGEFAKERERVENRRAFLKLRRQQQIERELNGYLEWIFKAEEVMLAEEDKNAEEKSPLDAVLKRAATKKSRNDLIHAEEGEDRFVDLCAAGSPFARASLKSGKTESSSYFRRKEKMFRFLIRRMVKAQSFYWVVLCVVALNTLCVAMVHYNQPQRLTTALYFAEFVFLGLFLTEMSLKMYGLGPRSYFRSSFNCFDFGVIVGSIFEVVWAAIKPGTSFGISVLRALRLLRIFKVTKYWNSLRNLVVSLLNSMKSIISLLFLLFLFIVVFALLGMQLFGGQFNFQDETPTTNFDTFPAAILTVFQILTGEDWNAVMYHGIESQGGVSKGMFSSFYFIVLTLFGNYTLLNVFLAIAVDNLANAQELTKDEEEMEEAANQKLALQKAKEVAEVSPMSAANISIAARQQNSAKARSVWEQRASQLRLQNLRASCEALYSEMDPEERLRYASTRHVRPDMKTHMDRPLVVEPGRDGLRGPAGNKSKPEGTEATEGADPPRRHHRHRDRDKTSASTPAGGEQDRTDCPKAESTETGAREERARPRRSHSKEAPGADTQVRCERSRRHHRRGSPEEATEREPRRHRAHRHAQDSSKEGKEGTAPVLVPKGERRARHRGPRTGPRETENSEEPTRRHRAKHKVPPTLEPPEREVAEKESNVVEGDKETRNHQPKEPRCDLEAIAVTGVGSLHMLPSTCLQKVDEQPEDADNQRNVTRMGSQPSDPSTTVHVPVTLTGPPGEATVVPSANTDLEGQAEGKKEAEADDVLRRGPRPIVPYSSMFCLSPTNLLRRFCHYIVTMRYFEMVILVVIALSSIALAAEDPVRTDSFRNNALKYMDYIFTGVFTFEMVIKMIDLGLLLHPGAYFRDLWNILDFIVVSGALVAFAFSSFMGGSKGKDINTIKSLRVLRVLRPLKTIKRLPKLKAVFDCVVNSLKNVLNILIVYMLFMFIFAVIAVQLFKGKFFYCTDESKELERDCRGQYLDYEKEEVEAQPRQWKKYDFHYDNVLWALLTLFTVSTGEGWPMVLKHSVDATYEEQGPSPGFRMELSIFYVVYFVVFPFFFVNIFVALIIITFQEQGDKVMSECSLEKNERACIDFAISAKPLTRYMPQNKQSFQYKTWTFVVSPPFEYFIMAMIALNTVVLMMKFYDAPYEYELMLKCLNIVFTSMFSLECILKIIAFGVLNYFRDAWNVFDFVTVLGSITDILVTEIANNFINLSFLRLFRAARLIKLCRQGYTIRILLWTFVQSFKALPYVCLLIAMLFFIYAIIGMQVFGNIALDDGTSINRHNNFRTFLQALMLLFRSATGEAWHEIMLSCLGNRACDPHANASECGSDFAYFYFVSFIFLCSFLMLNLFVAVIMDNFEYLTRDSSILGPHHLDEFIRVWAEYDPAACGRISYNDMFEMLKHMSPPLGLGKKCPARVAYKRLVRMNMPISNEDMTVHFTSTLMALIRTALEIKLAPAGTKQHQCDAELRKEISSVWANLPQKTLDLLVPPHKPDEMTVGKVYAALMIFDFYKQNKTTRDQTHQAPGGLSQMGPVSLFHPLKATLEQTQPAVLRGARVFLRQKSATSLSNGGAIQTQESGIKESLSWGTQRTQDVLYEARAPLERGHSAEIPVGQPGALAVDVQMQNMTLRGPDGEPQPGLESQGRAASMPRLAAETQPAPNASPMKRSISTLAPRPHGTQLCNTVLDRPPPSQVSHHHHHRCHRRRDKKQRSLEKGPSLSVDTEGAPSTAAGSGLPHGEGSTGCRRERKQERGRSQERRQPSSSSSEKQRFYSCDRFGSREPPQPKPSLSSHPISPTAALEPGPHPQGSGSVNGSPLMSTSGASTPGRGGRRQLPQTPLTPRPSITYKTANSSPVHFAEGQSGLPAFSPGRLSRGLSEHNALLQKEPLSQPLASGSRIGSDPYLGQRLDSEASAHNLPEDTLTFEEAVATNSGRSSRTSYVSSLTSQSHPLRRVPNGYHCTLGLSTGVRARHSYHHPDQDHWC
Experimental: tsA201 cells expressing calcium channels. […] For subsequent evaluation of effects on N-, P/Q-, or L-type channels, tsA-201 cells were transiently transfected with Cav2.2, Cav2.1, or Cav1.3, in combination with Cavβ3 and […] (Addgene, Cambridge Mass.) using FuGENE 6 (Life Technologies, Grand Island, N.Y.). All cells were maintained in DMEM supplemented with 10% fetal bovine serum. For the stable cell line expressing N-type channels, 25 μg/mL zeocin, 5 μg/mL blasticidin, and 25 μg/mL hygromycin were added as selection agents.
Whole-cell patch clamp recordings of calcium current. […] Briefly, the pipette solution consisted of […] Cs2SO4, 60 mM CsCl, 1 mM MgCl2, 10 mM 4-(2-hydroxyethyl)-1-piperazineethanesulfonic acid (HEPES) at pH 7.4. […] Patch pipettes were fabricated from borosilicate glass and pulled to a resistance of about 1 MΩ. Before each experiment, a stock solution consisting of 3 mg amphotericin-B dissolved into 50 μL anhydrous DMSO was made. […] Capacitive currents and passive membrane responses to voltage commands were subtracted from the data. Currents were amplified by an Axopatch 200B amplifier, filtered at 5 KHz, and digitized at 10 KHz for subsequent analysis using pClamp software (Axon Instruments/Molecular Devices; Sunnyvale, Calif.). […] To measure effects on calcium channel tail currents, the tail current integral was measured before and after application of a derivative, with the integral of each trace being normalized to its peak. All experiments were carried out at room temperature (22° C.). […] All other salts and chemicals were obtained from Sigma-Aldrich chemical company (St. Louis, Mo.).
(§1) Statistical Analysis. Statistical analysis was performed using either GraphPad Prism 5 (GraphPad Software, Inc.) or Origin 7 (OriginLab) software. For the dose-response analyses on Ca^2+ current, each concentration of the four different compounds was tested in 3-6 cells. […] All EC50 and IC50 values and their respective errors were determined by performing 100 iterations of a logistic function curve fit. Data are presented as mean±s.e.m. unless otherwise noted.

[2] = Solubility in saline with 1% DMSO; assay type: physicochemical; settings: saline or isotonic, kinetic from dmso stock
[3] = biological target: T2, mitogen-activated protein kinase (MAPK1(h)) (Homo sapiens, UniProt P27361); assay: Kinase inhibitory activity (EMD Millipore KinaseProfiler), MAPK1; assay type: biochemical; settings: 20 μM highest concentration used; read-out: MAPK EC50/IC50 affinities
T2 construct: purchased EMD Millipore KinaseProfiler service (Millipore UK Ltd.)
T2 sequence (P27361 whole entry): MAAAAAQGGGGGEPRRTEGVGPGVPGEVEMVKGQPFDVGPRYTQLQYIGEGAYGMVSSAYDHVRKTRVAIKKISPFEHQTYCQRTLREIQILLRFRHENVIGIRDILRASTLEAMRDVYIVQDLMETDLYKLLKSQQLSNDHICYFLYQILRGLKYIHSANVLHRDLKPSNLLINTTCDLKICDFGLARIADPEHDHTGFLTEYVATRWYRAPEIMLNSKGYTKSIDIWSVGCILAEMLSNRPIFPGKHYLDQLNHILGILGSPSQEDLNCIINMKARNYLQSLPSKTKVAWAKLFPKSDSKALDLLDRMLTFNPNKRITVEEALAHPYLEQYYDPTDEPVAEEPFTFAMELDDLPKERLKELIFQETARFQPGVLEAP
Experimental: (§2) Kinase inhibitory activity. Kinase inhibitory activities were determined using the EMD Millipore KinaseProfiler™ service (Millipore UK Ltd.). Each compound's kinase inhibitory activity was tested at three different concentrations (0.2 μM, 2 μM, and 20 μM) against five different kinases: Cdk1 cyclinB(h), cdk2 cyclinA(h), cdk5 p35(h), mitogen-activated protein kinase (MAPK1(h)) and myosin light-chain kinase (MLCK(h)).
(§3) Statistical Analysis. […] For the dose-response analyses on Ca^2+ current, each concentration of the four different compounds was tested in 3-6 cells. […] All EC50 and IC50 values and their respective errors were determined by performing 100 iterations of a logistic function curve fit.

Cdk1 cyclinB(h) = biological target: T3, Cdk1 cyclinB(h) (Homo sapiens, UniProt P06493); assay: Kinase inhibitory activity (EMD Millipore KinaseProfiler), cdk1; assay type: biochemical; settings: 20 μM highest concentration used; read-out: Cdk1 EC50/IC50 affinities
T3 construct: purchased EMD Millipore KinaseProfiler service (Millipore UK Ltd.)
T3 sequence (P06493 whole entry): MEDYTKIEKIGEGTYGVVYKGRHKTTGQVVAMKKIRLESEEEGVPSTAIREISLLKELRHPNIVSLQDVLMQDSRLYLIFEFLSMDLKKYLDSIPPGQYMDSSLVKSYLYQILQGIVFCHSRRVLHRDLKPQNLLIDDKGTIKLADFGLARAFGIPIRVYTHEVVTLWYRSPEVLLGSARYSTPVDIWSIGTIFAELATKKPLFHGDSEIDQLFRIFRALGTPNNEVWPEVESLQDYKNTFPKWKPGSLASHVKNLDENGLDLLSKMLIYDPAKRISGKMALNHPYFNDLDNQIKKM
T3 sequence (P14635 whole entry partner): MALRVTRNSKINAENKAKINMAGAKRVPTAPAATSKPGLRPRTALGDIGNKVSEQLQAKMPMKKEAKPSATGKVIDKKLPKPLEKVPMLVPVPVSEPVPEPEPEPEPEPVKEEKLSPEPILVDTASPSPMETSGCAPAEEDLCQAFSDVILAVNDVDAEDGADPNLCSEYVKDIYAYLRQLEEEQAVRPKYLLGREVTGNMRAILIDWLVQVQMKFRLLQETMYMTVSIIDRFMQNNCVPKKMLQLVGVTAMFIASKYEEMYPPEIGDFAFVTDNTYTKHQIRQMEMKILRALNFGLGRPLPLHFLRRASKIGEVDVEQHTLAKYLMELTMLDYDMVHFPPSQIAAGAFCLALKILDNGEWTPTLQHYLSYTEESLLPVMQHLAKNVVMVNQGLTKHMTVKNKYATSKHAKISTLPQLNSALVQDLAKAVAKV
Experimental: as §2, §1

[4] = biological target: T4, myosin light-chain kinase (MLCK(h)) (Homo sapiens, UniProt Q9H1R3); assay: Kinase inhibitory activity (EMD Millipore KinaseProfiler), MLCK; assay type: biochemical; settings: 20 μM highest concentration used; read-out: MLCK EC50/IC50 affinities
T4 construct: purchased EMD Millipore KinaseProfiler service (Millipore UK Ltd.)
Experimental: as §2, §3

cdk5 p35(h) = biological target: T5, cdk5 p35(h) (Homo sapiens, UniProt Q00535); assay: Kinase inhibitory activity (EMD Millipore KinaseProfiler), cdk5; assay type: biochemical; settings: 20 μM highest concentration used; read-out: Cdk5 EC50/IC50 affinities
T5 construct: purchased EMD Millipore KinaseProfiler service (Millipore UK Ltd.)
T5 sequence (Q00535 whole entry): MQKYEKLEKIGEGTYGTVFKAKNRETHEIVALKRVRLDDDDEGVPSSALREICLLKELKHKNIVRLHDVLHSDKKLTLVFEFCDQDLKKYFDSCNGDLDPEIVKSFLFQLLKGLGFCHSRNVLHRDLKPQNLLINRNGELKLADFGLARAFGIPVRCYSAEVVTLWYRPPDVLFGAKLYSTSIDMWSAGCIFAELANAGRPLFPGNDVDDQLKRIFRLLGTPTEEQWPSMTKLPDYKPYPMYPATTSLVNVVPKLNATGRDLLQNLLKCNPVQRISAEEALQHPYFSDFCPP
T5 sequence (Q15078 whole entry partner): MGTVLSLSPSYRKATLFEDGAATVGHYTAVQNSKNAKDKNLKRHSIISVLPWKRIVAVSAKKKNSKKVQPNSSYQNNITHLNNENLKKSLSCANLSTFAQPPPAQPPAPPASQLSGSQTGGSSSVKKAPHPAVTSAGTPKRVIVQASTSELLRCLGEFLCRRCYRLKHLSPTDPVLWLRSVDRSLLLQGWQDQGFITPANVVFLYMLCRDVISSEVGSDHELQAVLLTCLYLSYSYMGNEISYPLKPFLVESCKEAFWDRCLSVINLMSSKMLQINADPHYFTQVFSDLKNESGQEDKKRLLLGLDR
Experimental: as §2, §1

cdk2 cyclinA(h) = biological target: T6, cdk2 cyclinA(h) (Homo sapiens, UniProt P24941); assay: Kinase inhibitory activity (EMD Millipore KinaseProfiler), cdk2; assay type: biochemical
T6 construct: purchased EMD Millipore KinaseProfiler service (Millipore UK Ltd.)
Experimental: as §2, §3

[5] = whole cell perforated patch clamp, deactivation (tail) currents from N-type channels, read-out: N-Type Ca^2+ Channel Activity EC50 +/− SEM
[6] = Table 3, calcium channel agonist, read-out: N-type EC50/IC50 affinities

Row | Compound | EC50 [1, 5] | solubility [2] | IC50 [3] | decreased channel activity vs 13u [1] | agonist effect on the Ca^2+ channel tail currents (in words) ([1]; N-type) | maximal fold increase in the tail current integral relative to control ([1]; N-type channels) | EC50 [1, 6] | IC50 (Cdk1 cyclinB(h)) | IC50 [4] | IC50 (cdk5 p35(h)) | IC50 (cdk2 cyclinA(h); 20 μM highest concentration used, read-out: Cdk2 EC50/IC50 affinities) | EC50 (cdk2 cyclinA(h); determined in duplicate at 0.2, 2, and 20 μM, read-out: Cdk2 Activity EC50 +/− SEM) | increased Ca^2+ channel agonism vs. (R)-roscovitine ([1]; N-type)
1 | CC[C@H](CO)Nc1nc(NCc2ccccc2)c2ncn(C)c2n1 [Compound 13k, (R)-2-(6-(Benzylamino)-9-methyl-9H-purin-2-ylamino)butan-1-ol] | > 70 µM | ≤ 200 µM | – | – | – | – | – | – | – | – | – | – | –
2 | CC[C@H](CO)Nc1nc(NCc2ccc(C)s2)c2ncn(C)c2n1 [Compound 13w, (2R)-2-[(9-Methyl-6-{[(5-methylthiophen-2-yl)methyl]amino}-9H-purin-2-yl)amino]butan-1-ol] | 30 ± 1.87 µM | – | > 20 µM | ca. 3 fold | strong agonist effect | ~13 fold | 30 ± 1.87 µM | 10.5 ± 2.77 µM | > 20 µM | 2.81 ± 0.91 µM | 3.04 ± 0.17 µM | 3 µM | –
3 | CC[C@H](CO)Nc1nc(NCc2ccc(C)s2)c2ncn(C(C)C)c2n1 [Compound 13u, (R)-2-(9-Isopropyl-6-((5-methylthiophen-2-yl)methylamino)-9H-purin-2-ylamino)butan-1-ol] | 11.3 ± 1.48 µM | – | > 20 µM | – | strong agonist effect | – | 11.3 ± 1.48 µM | – | 19.5 ± 8.65 µM | – | – | – | ~4 fold
